Data reported in patent publication US11673897B2, “Compounds for the treatment of kinase-dependent disorders” (Exelixis, Inc., priority 2018, dated 2023).

Assays:
Type in all cases: cell-based
[1] = molecular target: AXL (Homo sapiens (Human), UniProt P30530); test: AXL autophosphorylation ELISA in A-172 cells; settings: cellular, Gas6-stimulated, phospho-AXL ELISA
Protocol: A-172 glioblastoma cells (ATCC #CRL-1620) were seeded at 2.5×10^5 cells/well onto 24-well plates (Greiner #662165), in […] (Thermo Fisher #11995-040) containing 10% FBS (Thermo Fisher #26140-079), […] (Thermo Fisher #11140-050), […] (Thermo Fisher #35050-061), and 1% Penicillin Streptomycin (Thermo Fisher #15140-122). A-172 cells were incubated at 37° C., […] for 24 hand then starved for 24 h in serum-free medium. Test compounds were serially diluted to produce an 8-point dose curve in fresh serum-free medium to a final concentration of 0.3% DMSO (vehicle) and added to the cells and incubated for 1 h. Cells were then stimulated with 1 μg/mL recombinant human Gas6 (R&D Systems #885-GSB-500) for 15 min, washed with cold PBS, and immediately lysed with 150 μL of cold 1× lysis buffer [20 mM Tris, 137 mM sodium chloride, 2 mM EDTA, 10% glycerol, 1% NP-40 alternative, 1 mM activated sodium orthovanadate, 1 mM PefaBloc SC (Sigma-Aldrich #11429868001), protease/phosphatase inhibitor tablet (Thermo Fisher #A32959)]. Lysates were collected and 100 μL/well added into the human phospho-AXL DuoSet IC ELISA (R&D Systems #DYC2228-2). Assay was performed according to manufacturer's instructions and sample phospho-AXL concentrations were extrapolated using human phospho-AXL control (R&D Systems #841645) as a standard. Positive control wells (100% activity) contained Gas6-stimulated, DMSO-treated cell lysates. Negative control wells (0% activity) contained Gas6-stimulated, reference inhibitor-treated cell lysates. IC50 values were calculated by nonlinear regression analysis using a 4-parameter logistic curve fit in ActivityBase XE (IDBS).

[2] = molecular target: Met (Homo sapiens (Human), UniProt P08581); test: Met autophosphorylation ELISA in PC-3 cells; settings: cellular, HGF-stimulated, phospho-Met ELISA, read-out: c-Met IC50
Met, sequence (P08581 25-1390): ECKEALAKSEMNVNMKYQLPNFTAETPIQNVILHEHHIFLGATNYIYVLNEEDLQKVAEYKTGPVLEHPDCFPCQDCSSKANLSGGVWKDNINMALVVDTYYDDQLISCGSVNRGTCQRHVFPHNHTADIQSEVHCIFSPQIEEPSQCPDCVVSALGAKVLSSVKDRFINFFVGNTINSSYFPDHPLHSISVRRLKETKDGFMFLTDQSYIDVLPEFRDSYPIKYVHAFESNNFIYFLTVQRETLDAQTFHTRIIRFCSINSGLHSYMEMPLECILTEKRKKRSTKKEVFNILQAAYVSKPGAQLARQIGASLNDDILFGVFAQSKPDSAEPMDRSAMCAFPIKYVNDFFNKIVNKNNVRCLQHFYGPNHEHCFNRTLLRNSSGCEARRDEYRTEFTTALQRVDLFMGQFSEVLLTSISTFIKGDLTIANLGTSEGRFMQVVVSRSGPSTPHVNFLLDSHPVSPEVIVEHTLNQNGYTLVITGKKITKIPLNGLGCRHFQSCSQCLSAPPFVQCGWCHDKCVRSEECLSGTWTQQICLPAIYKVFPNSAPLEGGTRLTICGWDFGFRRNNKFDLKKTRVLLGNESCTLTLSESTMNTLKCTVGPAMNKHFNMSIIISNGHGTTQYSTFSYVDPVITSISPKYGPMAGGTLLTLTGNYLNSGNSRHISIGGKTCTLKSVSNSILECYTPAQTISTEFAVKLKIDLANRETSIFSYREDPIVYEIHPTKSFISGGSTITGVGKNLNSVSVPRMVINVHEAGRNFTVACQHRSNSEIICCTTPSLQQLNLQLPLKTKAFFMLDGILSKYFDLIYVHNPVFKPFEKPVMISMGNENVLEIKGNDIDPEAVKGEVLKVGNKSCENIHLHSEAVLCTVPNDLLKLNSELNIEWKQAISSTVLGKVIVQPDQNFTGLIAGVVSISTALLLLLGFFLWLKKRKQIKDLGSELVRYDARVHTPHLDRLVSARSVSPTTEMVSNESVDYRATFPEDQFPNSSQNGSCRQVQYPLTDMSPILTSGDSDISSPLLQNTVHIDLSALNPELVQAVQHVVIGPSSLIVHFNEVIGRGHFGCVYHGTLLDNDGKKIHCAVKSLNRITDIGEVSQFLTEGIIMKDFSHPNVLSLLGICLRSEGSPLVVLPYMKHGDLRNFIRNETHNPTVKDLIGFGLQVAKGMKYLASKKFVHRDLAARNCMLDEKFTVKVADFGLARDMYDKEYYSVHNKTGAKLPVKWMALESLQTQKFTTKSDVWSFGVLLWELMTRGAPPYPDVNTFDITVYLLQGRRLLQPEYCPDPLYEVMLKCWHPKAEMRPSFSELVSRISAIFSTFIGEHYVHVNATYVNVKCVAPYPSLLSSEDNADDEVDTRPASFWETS
Protocol: PC-3 prostate cancer cells (ATCC #CRL-1435) were seeded at 4×10^4 cells/well onto 24-well plates (Greiner #662165), in DMEM (Thermo Fisher #11995-040) containing 10% FBS (Thermo Fisher #26140-079), 1% MEM NEAA (Thermo Fisher #11140-050), 1% GlutaMax (Thermo Fisher #35050-061), and 1% Penicillin Streptomycin (Thermo Fisher #15140-122). PC-3 cells were incubated at 37° C., 5% CO2 for 24 h and then starved for 3 h in serum-free medium. Test compounds were serially diluted to produce an 8-point dose curve in fresh serum-free medium to a final concentration of 0.3% DMSO (vehicle) and added to the cells and incubated for 1 h. Cells were then stimulated with 100 ng/mL recombinant human HGF (R&D Systems #294-HG-250) for 10 min, washed with cold PBS, and immediately lysed with 130 μL of cold 1× lysis buffer [20 mM Tris, 137 mM sodium chloride, 2 mM EDTA, 10% glycerol, 1% NP-40 alternative, 1 mM activated sodium orthovanadate, 1 mM PefaBloc SC (Sigma-Aldrich #11429868001), and protease/phosphatase inhibitor tablet (Thermo Fisher #A32959)]. Lysates were clarified by centrifugation and 100 μL/well added into the PathScan phospho-Met (panTyr) Sandwich ELISA (Cell Signaling Technology #7333). Assay was performed according to manufacturer's instructions. Positive control wells (100% activity) contained HGF-stimulated, DMSO-treated cell lysates. Negative control wells (0% activity) contained HGF-stimulated, reference inhibitor-treated cell lysates. IC50 values were calculated by nonlinear regression analysis using a 4-parameter logistic curve fit in ActivityBase XE (IDBS).

[3] = molecular target: KDR (Homo sapiens (Human), UniProt P35968); test: KDR autophosphorylation ELISA in HUVEC cells; settings: cellular, VEGF165-stimulated, phospho-KDR ELISA
KDR, sequence (P35968 20-1356): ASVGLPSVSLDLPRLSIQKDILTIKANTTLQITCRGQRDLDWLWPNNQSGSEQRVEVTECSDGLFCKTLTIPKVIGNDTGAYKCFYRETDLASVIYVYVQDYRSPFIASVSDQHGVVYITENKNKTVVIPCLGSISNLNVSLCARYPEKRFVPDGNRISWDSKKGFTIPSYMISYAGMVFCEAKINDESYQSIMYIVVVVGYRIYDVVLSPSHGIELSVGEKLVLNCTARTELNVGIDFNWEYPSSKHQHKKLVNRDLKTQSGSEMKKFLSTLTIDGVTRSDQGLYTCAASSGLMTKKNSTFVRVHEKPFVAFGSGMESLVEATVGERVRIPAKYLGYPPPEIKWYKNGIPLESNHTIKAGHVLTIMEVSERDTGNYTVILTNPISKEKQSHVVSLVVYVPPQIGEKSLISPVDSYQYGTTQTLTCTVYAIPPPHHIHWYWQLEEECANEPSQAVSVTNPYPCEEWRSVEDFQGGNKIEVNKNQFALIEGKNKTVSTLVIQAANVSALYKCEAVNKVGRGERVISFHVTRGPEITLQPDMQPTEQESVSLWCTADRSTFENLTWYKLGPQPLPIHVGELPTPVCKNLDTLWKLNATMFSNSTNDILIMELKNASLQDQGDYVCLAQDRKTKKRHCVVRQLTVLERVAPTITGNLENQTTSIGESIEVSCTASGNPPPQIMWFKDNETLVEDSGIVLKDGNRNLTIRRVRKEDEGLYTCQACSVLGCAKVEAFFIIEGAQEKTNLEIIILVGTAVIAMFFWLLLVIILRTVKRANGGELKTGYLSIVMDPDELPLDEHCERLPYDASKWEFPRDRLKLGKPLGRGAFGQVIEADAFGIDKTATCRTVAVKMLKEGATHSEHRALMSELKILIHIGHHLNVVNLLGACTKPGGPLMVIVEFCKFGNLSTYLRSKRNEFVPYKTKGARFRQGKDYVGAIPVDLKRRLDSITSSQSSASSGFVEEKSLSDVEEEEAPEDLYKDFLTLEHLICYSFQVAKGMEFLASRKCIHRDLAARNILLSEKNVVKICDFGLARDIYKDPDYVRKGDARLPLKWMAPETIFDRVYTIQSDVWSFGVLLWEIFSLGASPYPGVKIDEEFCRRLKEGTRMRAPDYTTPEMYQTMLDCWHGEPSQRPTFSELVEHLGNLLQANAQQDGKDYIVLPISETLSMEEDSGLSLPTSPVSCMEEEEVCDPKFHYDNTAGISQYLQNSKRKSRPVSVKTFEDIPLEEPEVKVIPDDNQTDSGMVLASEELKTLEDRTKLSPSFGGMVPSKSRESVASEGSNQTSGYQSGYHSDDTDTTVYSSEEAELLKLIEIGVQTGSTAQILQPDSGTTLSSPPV
Protocol: Human umbilical vein endothelial cells or HUVEC (Lonza #C2519A) were seeded at 2×10^4 cells/well onto 96-well plates (Corning #3904), in EGM-2 growth medium (Lonza #CC-3162) containing 1% Penicillin Streptomycin (Thermo Fisher #15140-122). HUVEC cells were incubated at 37° C., 5% CO2 for 24 h and then starved for 24 h in serum-free EBM-2 basal medium (Lonza #CC-3156) containing 1% Penicillin Streptomycin. Test compounds were serially diluted to produce an 8-point dose curve in fresh serum-free medium to a final concentration of 0.3% DMSO (vehicle) and added to the cells and incubated for 1 h. Cells were then stimulated with 100 ng/mL recombinant human VEGF165 (R&D Systems #293-VE-500) for 5 min, washed with cold PBS, and immediately lysed with 130 μL of cold 1× lysis buffer [20 mM Tris, 137 mM sodium chloride, 2 mM EDTA, 10% glycerol, 1% NP-40 alternative, 1 mM activated sodium orthovanadate, 1 mM PefaBloc SC (Sigma-Aldrich #11429868001), protease/phosphatase inhibitor tablet (Thermo Fisher #A32959)]. Lysates were collected and 100 μL/well added into the human phospho-KDR DuoSet IC ELISA (R&D Systems #DYC1766-2). Assay was performed according to manufacturer's instructions and sample phospho-KDR concentrations were extrapolated using human phospho-KDR control (R&D Systems #841421) as a standard. Positive control wells (100% activity) contained VEGF165-stimulated, DMSO-treated cell lysates. Negative control wells (0% activity) contained non-stimulated cell lysates. IC50 values were calculated by nonlinear regression analysis using a 4-parameter logistic curve fit in ActivityBase XE (IDBS).

AXL, sequence (P30530 26-894): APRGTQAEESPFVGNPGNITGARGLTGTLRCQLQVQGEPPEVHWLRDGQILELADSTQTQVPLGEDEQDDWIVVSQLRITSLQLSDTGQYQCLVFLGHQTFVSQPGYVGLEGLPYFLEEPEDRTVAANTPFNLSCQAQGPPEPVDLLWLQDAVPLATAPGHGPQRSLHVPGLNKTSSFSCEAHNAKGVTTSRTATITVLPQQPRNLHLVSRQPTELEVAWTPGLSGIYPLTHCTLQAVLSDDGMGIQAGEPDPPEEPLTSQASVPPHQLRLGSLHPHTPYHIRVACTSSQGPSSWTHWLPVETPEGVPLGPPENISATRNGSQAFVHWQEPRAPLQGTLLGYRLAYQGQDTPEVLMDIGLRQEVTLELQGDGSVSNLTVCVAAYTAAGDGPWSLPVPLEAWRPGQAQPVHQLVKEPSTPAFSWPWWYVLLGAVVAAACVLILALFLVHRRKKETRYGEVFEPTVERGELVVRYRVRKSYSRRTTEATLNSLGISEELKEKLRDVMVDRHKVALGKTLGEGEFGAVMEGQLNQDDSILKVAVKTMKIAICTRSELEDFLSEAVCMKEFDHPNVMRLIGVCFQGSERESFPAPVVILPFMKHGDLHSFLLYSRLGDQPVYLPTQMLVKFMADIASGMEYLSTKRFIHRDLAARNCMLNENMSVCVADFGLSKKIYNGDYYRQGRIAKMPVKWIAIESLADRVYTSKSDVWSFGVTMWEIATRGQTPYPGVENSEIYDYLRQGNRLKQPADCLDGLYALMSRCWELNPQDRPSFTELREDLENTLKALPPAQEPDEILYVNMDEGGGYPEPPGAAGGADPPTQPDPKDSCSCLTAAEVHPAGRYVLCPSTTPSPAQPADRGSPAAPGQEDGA

| Structure (SMILES) | IC50 [1] [µM] | IC50 [2] [µM] | IC50 [3] [µM] |
| --- | --- | --- | --- |
| COc1cc2nccc(Oc3ncc(NC(=O)C4(C(=O)Nc5ccc(F)cc5)CC4)cc3F)c2cc1C(=O)O [Compound 15, 4-[3-Fluoro-5-[[1-[(4-fluorophenyl)carbamoyl]cyclopropanecarbonyl]amino]pyridin-2-yl]oxy-7-methoxyquinoline-6-carboxylic acid] | > 0.3 | > 0.3 | > 0.3 |
| COCc1noc(-c2cc3c(Oc4ncc(NC(=O)C5(C(=O)Nc6ccc(F)cc6)CC5)cc4F)ccnc3cc2OC)n1 [Compound 25, 1-N′-[5-Fluoro-6-[7-methoxy-6-[3-(methoxymethyl)-1,2,4-oxadiazol-5-yl]quinolin-4-yl]oxypyridin-3-yl]-1-N-(4-fluorophenyl)cyclopropane-1,1-dicarboxamide] | > 0.3 | > 0.3 | > 0.3 |
| COCCc1noc(-c2cc3c(Oc4ncc(NC(=O)C5(C(=O)Nc6ccc(F)cc6)CC5)cc4F)ccnc3cc2OC)n1 [Compound 26, 1-N′-[5-Fluoro-6-[7-methoxy-6-[3-(2-methoxyethyl)-1,2,4-oxadiazol-5-yl]quinolin-4-yl]oxypyridin-3-yl]-1-N-(4-fluorophenyl)cyclopropane-1,1-dicarboxamide] | > 0.3 | > 0.3 | > 0.3 |
| CCc1noc(-c2cc3c(Oc4ncc(NC(=O)C5(C(=O)Nc6ccc(F)cc6)CC5)cc4F)ccnc3cc2OC)n1 [Compound 27, 1-N′-[6-[6-(3-Ethyl-1,2,4-oxadiazol-5-yl)-7-methoxyquinolin-4-yl]oxy-5-fluoropyridin-3-yl]-1-N-(4-fluorophenyl)cyclopropane-1,1-dicarboxamide] | > 0.3 | > 0.3 | > 0.3 |
| CNC(=O)c1cc2c(Oc3ncc(NC(=O)C4(C(=O)Nc5ccc(F)cc5)CC4)cc3F)ccnc2cc1OCCO [Compound 44, 1-N′-[5-Fluoro-6-[7-(2-hydroxyethoxy)-6-(methylcarbamoyl)-quinolin-4-yl]oxypyridin-3-yl]-1-N-(4-fluorophenyl)cyclopropane-1,1-dicarboxamide] | 0.01 to 0.1 | 0.01 to 0.1 | > 0.3 |
| COc1cc2nccc(Oc3cc(C)c(NC(=O)C4(C(=O)Nc5ccc(F)cc5)CC4)cn3)c2nc1OC [Compound 83, 1-N′-[6-[(6,7-Dimethoxy-1,5-naphthyridin-4-yl)oxy]-4-methylpyridin-3-yl]-1-N-(4-fluorophenyl)cyclopropane-1,1-dicarboxamide] | > 0.3 | > 0.3 | > 0.3 |
| COc1cc2nccc(Oc3ncc(NC(=O)C4(C(=O)Nc5ccc(F)cc5)CC4)cc3C#N)c2nc1OC [Compound 84, 1-N′-[5-Cyano-6-[(6,7-dimethoxy-1,5-naphthyridin-4-yl)oxy]pyridin-3-yl]-1-N-(4-fluorophenyl)cyclopropane-1,1-dicarboxamide] | > 0.3 | > 0.3 | > 0.3 |
| COc1cc2nccc(Oc3ncc(NC(=O)C4(C(=O)Nc5ccc(F)cc5)CC4)cc3C)c2nc1OC [Compound 85, 1-N′-[6-[(6,7-Dimethoxy-1,5-naphthyridin-4-yl)oxy]-5-methylpyridin-3-yl]-1-N-(4-fluorophenyl)cyclopropane-1,1-dicarboxamide] | > 0.3 | > 0.3 | > 0.3 |
| COc1cc(Oc2ccnc3cc(OC)c(OC)nc23)ncc1NC(=O)C1(C(=O)Nc2ccc(F)cc2)CC1 [Compound 88, 1-N′-[6-[(6,7-Dimethoxy-1,5-naphthyridin-4-yl)oxy]-4-methoxypyridin-3-yl]-1-N-(4-fluorophenyl)cyclopropane-1,1-dicarboxamide] | 0.1 to 0.3 | > 0.3 | > 0.3 |
| COc1cc2nccc(Oc3ncc(NC(=O)C4(C(=O)Nc5ccc(F)cc5)CC4)cc3C(F)(F)F)c2nc1OC [Compound 89, 1-N′-[6-[(6,7-Dimethoxy-1,5-naphthyridin-4-yl)oxy]-5-(trifluoromethyl)pyridin-3-yl]-1-N-(4-fluorophenyl)cyclopropane-1,1-dicarboxamide] | > 0.3 | > 0.3 | > 0.3 |
| COc1cc2nccc(Oc3nc(C)c(NC(=O)C4(C(=O)Nc5ccc(F)cc5)CC4)cc3Br)c2nc1OC [Compound 90, 1-N′-[5-Bromo-6-[(6,7-dimethoxy-1,5-naphthyridin-4-yl)oxy]-2-methylpyridin-3-yl]-1-N-(4-fluorophenyl)cyclopropane-1,1-dicarboxamide] | > 0.3 | > 0.3 | > 0.3 |
| COc1cc2nccc(Oc3ccc(NC(=O)C4(C(=O)Nc5ccc(F)cc5)CC4)c(C(N)=O)n3)c2nc1OC [Compound 91, 1-N′-[2-Carbamoyl-6-[(6,7-dimethoxy-1,5-naphthyridin-4-yl)oxy]pyridin-3-yl]-1-N-(4-fluorophenyl)cyclopropane-1,1-dicarboxamide] | > 0.3 | > 0.3 | > 0.3 |
| COc1cc2nccc(Oc3ncc(NC(=O)C4(C(=O)Nc5ccc(F)cc5)CC4)cc3OC)c2nc1OC [Compound 92, 1-N′-[6-[(6,7-Dimethoxy-1,5-naphthyridin-4-yl)oxy]-5-methoxypyridin-3-yl]-1-N-(4-fluorophenyl)cyclopropane-1,1-dicarboxamide] | > 0.3 | > 0.3 | > 0.3 |
| O=C(Nc1ccc(F)cc1)C1(C(=O)Nc2ccc(Oc3ccnc4cc5c(nc34)OCCO5)nc2)CC1 [Compound 103, 1-N′-[6-(2,3-Dihydro-[1,4]dioxino[2,3-b][1,5]naphthyridin-6-yloxy)pyridin-3-yl]-1-N-(4-fluorophenyl)cyclopropane-1,1-dicarboxamide] | > 0.3 | > 0.3 | > 0.3 |
| O=C(Nc1ccc(F)cc1)C1(C(=O)Nc2cnc(Oc3ccnc4cc5c(nc34)OCCO5)c(Cl)c2)CC1 [Compound 104, 1-N′-[5-Chloro-6-(2,3-dihydro-[1,4]dioxino[2,3-b][1,5]naphthyridin-6-yloxy)pyridin-3-yl]-1-N-(4-fluorophenyl)cyclopropane-1,1-dicarboxamide] | > 0.3 | > 0.3 | > 0.3 |
| O=C(Nc1ccc(F)cc1)C1(C(=O)Nc2cnc(Oc3ccnc4cc5c(nc34)OCCO5)c(F)c2)CC1 [Compound 105, 1-N′-[6-(2,3-Dihydro-[1,4]dioxino[2,3-b][1,5]naphthyridin-6-yloxy)-5-fluoropyridin-3-yl]-1-N-(4-fluorophenyl)cyclopropane-1,1-dicarboxamide] | > 0.3 | > 0.3 | > 0.3 |
